US12319690B2, “Selective CDK 4/6 inhibitor cancer therapeutics” (LUNELLA BIOTECH, INC., priority 2019, dated 2025)

How the values were obtained:
Type in all cases: cell-based, human
[1] = tested on: MCF7 cell line (ER+ breast cancer); test: 3D-mammosphere formation assay; conditions: for IC50: Homo sapiens, MCF7, 3D-mammosphere assay; for SI (mammosphere/monolayer MCF7): mammosphere selectivity index, ratio between IC50 values in the 3D and 2D assays against MCF7; for inhibition of MCF7 cells in the mammosphere assay compared to parent compound: concentrations from 1 μM to 100 μM
From the text: As used in the tables, “IC50 (MCF7 mammosphere)” refers to the half maximal inhibitory concentration in the 3D-mammosphere assay, using the ER+ breast cancer cell line, MCF7. The term “IC50 (MCF7 monolayer)” refers to the half maximal inhibitory concentration in the 2D-cell viability assay, using the ER+ breast cancer cell line, MCF7. The term “IC50 (BJ1 monolayer)” refers to the half maximal inhibitory concentration in the 2D-cell viability assay, using the immortalized non-tumoral fibroblast cell line, hTERT-BJ1. The term “SI (mammosphere/monolayer MCF7)” refers to the mammosphere selectivity index, a ratio between IC50 values comparing the biological activity in the 3D and 2D assays against MCF7. The term “SI (BJ1/MCF7 monolayer)” refers to the cancer selectivity index, a ratio between IC50 values comparing the biological activity in the cell viability assays against MCF7 and hTERT-BJ1.
FIGS. 1-3 are dose-response curves for various compounds described herein, using the mammosphere assay. The assay was performed using the MCF7 cell line. The curves are plotted as a mean of two independent experiments, and the standard deviation for each point is represented by vertical bars. The inhibition percentage is shown as a function of the log of the concentration (μM). […] Similar effects are expected for compounds having the general formula [1D].
Mammosphere formation assay: A single cell suspension was prepared using enzymatic (1× Trypsin-EDTA, Sigma Aldrich, cat. #T3924), and manual disaggregation (25 gauge needle). Five thousand cells were plated with in mammosphere medium (DMEM-F12/B27/20 ng/ml EGF/PenStrep), under non-adherent conditions, in six wells plates coated with 2-hydroxyethylmethacrylate (poly-HEMA, Sigma, cat. #P3932). Cells were grown for 5 days and maintained in a humidified incubator at 37° C. at an atmospheric pressure in 5% (v/v) carbon dioxide/air. After 5 days, 3D spheroids with a diameter greater than 50 μm were counted using a microscope, fitted with a graticule eye-piece, and the percentage of cells which formed spheroids was calculated and normalized to one (1=100% MFE; mammosphere forming efficiency). Mammosphere assays were performed in triplicate and repeated three times independently.

[2] = tested on: hTERT-BJ1 (immortalized non-tumoral fibroblast cell line); test: 2D-cell viability assay (Hoechst staining), hTERT-BJ1 monolayer; conditions: for IC50: Homo sapiens, Fibroblast, 2D-cell viability assay, hTERT-BJ1; for SI (BJ1/MCF7 monolayer): cancer selectivity index, ratio between IC50 values in cell viability assays against MCF7 and hTERT-BJ1
From the text: (§1) As used in the tables, “IC50 (MCF7 mammosphere)” refers to the half maximal inhibitory concentration in the 3D-mammosphere assay, using the ER+ breast cancer cell line, MCF7. The term “IC50 (MCF7 monolayer)” refers to the half maximal inhibitory concentration in the 2D-cell viability assay, using the ER+ breast cancer cell line, MCF7. The term “IC50 (BJ1 monolayer)” refers to the half maximal inhibitory concentration in the 2D-cell viability assay, using the immortalized non-tumoral fibroblast cell line, hTERT-BJ1. The term “SI (mammosphere/monolayer MCF7)” refers to the mammosphere selectivity index, a ratio between IC50 values comparing the biological activity in the 3D and 2D assays against MCF7. The term “SI (BJ1/MCF7 monolayer)” refers to the cancer selectivity index, a ratio between IC50 values comparing the biological activity in the cell viability assays against MCF7 and hTERT-BJ1. A Hoechst-based viability assay was used to characterize the selectivity of compounds according to the present approach, for the preferential targeting of cancer cells. Briefly, MCF7 cell monolayers were treated with a compound at concentrations ranging from 1 μM to 100 μM, for a period of one day. Cell viability was assessed using Hoechst 33342, a nuclear dye that stains DNA in live cells. The viability of normal human fibroblasts (hTERT-BJ1) treated with the compounds described herein was also assessed in parallel. Quantitation was performed with a plate-reader.

[3] = tested on: MCF7 cell line (ER+ breast cancer); test: 2D-cell viability assay (Hoechst staining), MCF7 monolayer; conditions: for IC50: Homo sapiens, MCF7, 2D-cell viability assay, MCF7
From the text: as §1

Q: What does the source list for `CCN1CCN(Cc2ccc(Nc3ncc(F)c(-c4cc(F)c5nc(C)n(C(C)C)c5c4)n3)nc2)CC1` [Abemaciclib]?
A: IC50 ([1]; MCF7): < 0.04 µM; SI (mammosphere/monolayer MCF7) [1]: >50; IC50 ([2]; Table 3, unit inferred): 30 ± 6 µM; SI (BJ1/MCF7 monolayer) [2]: 2.7; IC50 [3]: 11 µM

Q: How did the IC50 ([1]; MCF7) turn out when `CCCCCCCCCCCCCC(=O)N1CCN(c2ccc(Nc3ncc4cc(C(=O)N(C)C)n(C5CCCC5)c4n3)nc2)CC1` [Compound [1C], 7-cyclopentyl-N,N-dimethyl-2-[[5-(4-tetradecanoylpiperazin-1-yl)-2-pyridyl]amino]pyrrolo[2,3-d]pyrimidine-6-carboxamide] was run?
A: The IC50 was ~0.2 µM.

Q: And the “inhibition of cell propagation” value ([1]; at concentrations as low as 1 μM, preliminary laboratory evaluations)?
A: The value was ~100%.

Q: What about the “inhibition of MCF7 cells in the mammosphere assay compared to parent compound” value [1] of the same compound?
A: The value was “remarkably improved inhibition”.

Q: And the “SI (mammosphere/monolayer MCF7)” value [1]?
A: Its value is 10.

Q: And the “fold improvement in potency in the 3D-mammosphere assay compared to the parent compound” value ([1]; vs. Ribociclib, MCF7)?
A: The value was 7 fold.

Q: What about the IC50 [2] of the same compound?
A: The IC50 was > 90 µM.

Q: And the “SI (BJ1/MCF7 monolayer)” value [2]?
A: Its value is >45.

Q: And the “potency against MCF7 cells compared to parent compound (dose-response curves)” value ([3]; Hoechst staining assay, MCF7, FIG. 4 (FIG. 1 cited in same passage))?
A: The value was “more potent”.

Q: What about the IC50 [3] of the same compound?
A: The IC50 was ~2 µM.

Q: Which results are given for `CCCCCCCCCCCCCC(=O)N1CCN(c2ccc(Nc3ncc4c(C)c(C(C)=O)c(=O)n(C5CCCC5)c4n3)nc2)CC1` [Compound [2C], 6-acetyl-8-cyclopentyl-5-methyl-2-[[5-(4-tetradecanoylpiperazin-1-yl)-2-pyridyl]amino]pyrido[2,3-d]pyrimidin-7-one]?
A: IC50 ([1]; MCF7): ~5.1 µM; inhibition of MCF7 cells in the mammosphere assay compared to parent compound [1]: remarkably improved inhibition; SI (mammosphere/monolayer MCF7) [1]: >5; IC50 [2]: > 90 µM; IC50 [3]: > 30 µM; non-toxic in the 2D-cell viability assay up to a concentration ([3]; MCF7 monolayer): ≤ 30 µM

Q: Which IC50 ([1]; MCF7) does the source give for `CC(=O)c1c(C)c2cnc(Nc3ccc(N4CCNCC4)cn3)nc2n(C2CCCC2)c1=O` [Palbociclib, 6-acetyl-8-cyclopentyl-5-methyl-2-(5-piperazin-1-yl-pyridin-2-ylamino)-8H-pyrido[2,3-d]pyrimidin-7-one] here?
A: Its IC50 is ~0.2 µM.

Q: And the “SI (mammosphere/monolayer MCF7)” value [1]?
A: Its value is “non-selective”.

Q: And the IC50 [2]?
A: The IC50 was > 90 µM.

Q: What about the “SI (BJ1/MCF7 monolayer)” value [2] of the same compound?
A: Its value is >900.

Q: What about the IC50 [3] of the same compound?
A: The IC50 was ~0.1 µM.

Q: How did the IC50 ([1]; MCF7) turn out when `CN(C)C(=O)c1cc2cnc(Nc3ccc(N4CCNCC4)cn3)nc2n1C1CCCC1` [Ribociclib, 7-cyclopentyl-N,N-dimethyl-2-[(5-piperazin-1-ylpyridin-2-yl)amino]pyrrolo[2,3-d]pyrimidine-6-carboxamide] was run?
A: Its IC50 is ~1.5 µM.

Q: What about the “SI (mammosphere/monolayer MCF7)” value [1] of the same compound?
A: The value was 1.3.

Q: What about the “potency on hTERT-BJ1 compared to Compound [1C] (dose-response curves)” value ([2]; Hoechst staining assay, hTERT-BJ1, FIG. 7) of the same compound?
A: The value was “more potent at most concentrations tested”.

Q: What about the IC50 [2] of the same compound?
A: Its IC50 is > 90 µM.

Q: What about the “SI (BJ1/MCF7 monolayer)” value [2] of the same compound?
A: The value was >45.

Q: And the IC50 [3]?
A: The IC50 was ~2 µM.
